# Source: publication PMC8583417, “Evaluation of the Antimicrobial Efficacy of N-Acetyl-L-Cysteine, Rhamnolipids, and Usnic Acid—Novel Approaches to Fight Food-Borne Pathogens” (International Journal of Molecular Sciences, 2021)
# Tests used:
# L. monocytogenes 149 = experiment: MIC for biofilm formation (crystal violet staining); assay type: cell-based, Listeria monocytogenes; conditions: ≥80% prevention, 24 h
# Experimental: (§1) Ten concentrations of NAC, RLs, and UA were tested to determine the minimum inhibitory concentration for planktonic growth, and subsequently, the six highest concentrations were applied on preformed biofilms to evaluate the biofilm eradication ability of the compounds. MIC was defined as the lowest substance concentration able to inhibit at least 80% of microbial growth (MICPC80 for planktonic cells, MICBC80 for further growth of biofilm cells), inhibit 80% of metabolic activity (MICBM80 for biofilm metabolic activity, MICMPB80 for metabolic activity of preformed biofilm), prevent biofilm formation by at least 80% (MICBF80 for biofilm formation), or reduce a preformed biofilm by at least 80% (MICBR80 for biofilm reduction). The results of MICs are summarized in Table 1 (planktonic cells) and Table 2 (biofilm-associated cells).
# (§2) The determination of MICs was performed according to Chlumsky et al.. Briefly, 96-well flat-bottomed microtiter plates were inoculated with 75 µL (for biofilm formation) or 100 µL (for preformed biofilm) of bacterial suspension (A625nm 0.08 to 0.1) in technical triplicates and were then carefully mixed with the dilution series of the test substances (24 h cultivation at 25 °C for S. Infantis, 37 °C for other strains) or were directly cultivated to preform biofilms (18 h). For a positive control of bacterial growth, the inoculum was mixed with a pure sterile medium. […] To evaluate planktonic cells growth (MICPC80) and further growth of biofilm cells (MICBC80), the optical density of the content of the microtiter plates was measured spectrophotometrically at 625 nm before and after 24 h (for biofilm formation) of cultivation or before and after additional 20 h incubation with the tested compound (for preformed biofilm). […] To evaluate the inhibition of biofilm formation (MICBF80) and reduction in preformed biofilms (MICBR80), biomass was quantified using crystal violet staining, and its metabolic activity (MICBM80 and MICMPB80) was estimated by using the MTT (thiazyl tetrazolium bromide, Sigma-Aldrich, USA) reduction assay, both measured spectrophotometrically at 595 nm.
# (§3) All inhibitions were calculated using the formula of Chlumsky et al. below (Equation (1)):(1) A625(595)nm inhibition (%)=A625(595)nm (control) – A625(595)nm(natural substance)/A625(595)nm (control)× 100 where A625(595)nm (control) is the absorbance of bacterial suspension/biofilm itself, and A625(595)nm(natural substance) is the absorbance of the bacterial suspension/biofilm with the added natural substance (NAC, RLs, and UA).
# (§4) When the minimum inhibitory concentration could not be determined, the MIC was established as >the highest tested concentration for NAC, RLs, and UA.
# L. monocytogenes 164 = experiment: as above; assay type: cell-based, Listeria monocytogenes; conditions: ≥80% prevention, 24 h
# Experimental: as §1, §2, §3, §4
# [1] = test system: S. Enteritidis ATCC 13076; experiment: CLSM analysis, biofilm prevention; assay type: cell-based, Salmonella enterica Enteritidis; conditions: 24 h exposure; for Thickness (µm) subCBM80: substance at subinhibitory concentration, mean ± SD
# Experimental: Biofilm prevention and removal analyses were performed using previously determined minimum inhibitory and subinhibitory concentrations for metabolic activity (MICBM80, subCBM80; MICMPB80, subCMPB80) of NAC, RLs, and UA specific for each tested strain. Selected concentrations were used to evaluate the inhibition of biofilm formation (biofilm prevention) and the reduction in previously formed biofilms (biofilm removal) for the same set of microorganisms, with the exception of S. Infantis, which was excluded from the analysis due to its inability to form biofilm in the selected microtiter plate. Biofilm prevention and removal were observed using CLSM with specific staining to distinguish between live and membrane-compromised cells. Images were analyzed to evaluate (i). the total volume of the biomass, (ii). ratios of live and membrane-compromised cells, and (iii). to calculate biofilm volume reduction for individual organisms after the respective treatment types. The total biofilm volume was normalized by the area of the well and expressed as an average biofilm thickness. Complete data are provided in Supplementary Materials (Tables S1–S8).
# For both inhibition and reduction of biofilms, overnight cultures from BHI were diluted in TSB + 1% Glc to reach an absorbance of 0.08 to 0.1 at 625 nm. The inoculum (150 µL) was transferred into wells of the 96-well flat-bottomed Ibidiμ-Plate (Ibidi, Gräfelfing, Germany) and mixed with 150 µL of each of the three tested substances in technical quadruplicates, followed by incubation at 37 °C for 24 h. Simultaneously, the prepared bacterial suspensions were inoculated to an additional microtiter plate (200 µL) and allowed to form biofilm overnight (18 h at 37 °C). After the incubation, the content of the well was drained off, and 200 µL of each of the three tested substances was added to the plate, which was then incubated for an additional 20 h. […]
# All collected images were statistically evaluated to quantify biovolume utilizing the surface estimation procedure described in Parker et al.. […]
SMILES,MICBF80 (L. monocytogenes 149) [µg/mL],MICBF80 (L. monocytogenes 164) [µg/mL],Thickness (µm) subCBM80 [1] [µm],"Thickness (µm) MICBM80 ([1]; substance at its MICBM80, mean ± SD) [µm]"
"CC(=O)c1c(O)c(C)c(O)c2c1OC1=CC(=O)C(C(C)=O)C(=O)C12C (single isomer, unassigned; (+)) [UA, (+)-usnic acid]",0.98,1.96,77.6 ± 39.1,–
"CC(=O)N[C@@H](CS)C(=O)O [NAC, N-Acetyl-L-cysteine]",6250,6250,137 ± 69.6,117 ± 41.6
